Measurements as given in publication PMC7734590, “Identification of a Selective RelA Inhibitor Based on DSE-FRET Screening Methods” (International Journal of Molecular Sciences, 2020).
Where a name gives a salt, the structure may show the parent alone. Read-outs that look alike come from different tables or passages of the source.

Legend:
[1] = target: T1, p52 (Homo sapiens, UniProt Q00653); assay: DSE-FRET p52–DNA binding inhibition; format: biochemical; parameters: p52 Retest % Inhibition Run2 / p52 Retest % Inhibition Avg. / Kinetic assay p52 Inhibition % ΔRFU(60 min-0 min) / p52 HTS % Inhibition / p52 Retest % Inhibition Run1: dose or concentration left out as unconfirmed; conditions: for Hit Judgement of: p52: 1 = judged hit after retest
T1 sequence (Q00653 1-454 limits assumed): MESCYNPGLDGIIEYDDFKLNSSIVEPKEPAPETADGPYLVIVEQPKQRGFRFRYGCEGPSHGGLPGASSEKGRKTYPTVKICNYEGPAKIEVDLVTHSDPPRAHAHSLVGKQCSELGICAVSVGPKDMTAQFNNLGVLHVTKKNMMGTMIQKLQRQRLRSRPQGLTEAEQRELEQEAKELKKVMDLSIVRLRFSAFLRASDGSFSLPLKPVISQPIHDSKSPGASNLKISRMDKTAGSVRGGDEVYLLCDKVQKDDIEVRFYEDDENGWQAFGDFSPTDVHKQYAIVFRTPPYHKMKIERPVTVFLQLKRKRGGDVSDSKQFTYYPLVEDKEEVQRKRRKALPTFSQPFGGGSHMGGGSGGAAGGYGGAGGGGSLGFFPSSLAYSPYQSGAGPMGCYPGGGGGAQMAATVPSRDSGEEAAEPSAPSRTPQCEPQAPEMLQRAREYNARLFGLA

[2] = target: RelA (Homo sapiens, UniProt Q04206); assay: DSE-FRET RelA–DNA binding inhibition; format: biochemical; parameters: Kinetic assay RelA Inhibition % ΔRFU(60 min-0 min) / RelA HTS % Inhibition / RelA Retest % Inhibition Run1 / RelA Retest % Inhibition Run2 / RelA Retest % Inhibition Avg. / Kinetic assay RelA % Inhibition ΔRFU(60 min-0 min): dose or concentration left out as unconfirmed; conditions: for Hit Judgement of: RelA: 1 = judged hit after retest
[3] = Retest average of Run1 and Run2
[4] = kinetic assay, ΔRFU 60 min-0 min
[5] = HTS, known drugs, 10 µM, read-out: p52 HTS % Inhibition @ 10 µM
[6] = retest, Run1, 10 µM, read-out: p52 Retest % Inhibition @ 10 µM Run1
[7] = retest, Run2, 10 µM, read-out: p52 Retest % Inhibition @ 10 µM Run2
[8] = retest, average of Run1 and Run2, 10 µM, read-out: p52 Retest % Inhibition @ 10 µM Avg.
[9] = HTS, known drugs, 10 µM, read-out: RelA HTS % Inhibition @ 10 µM
[10] = retest, Run1, 10 µM, read-out: RelA Retest % Inhibition @ 10 µM Run1
[11] = retest, Run2, 10 µM, read-out: RelA Retest % Inhibition @ 10 µM Run2
[12] = retest, average of Run1 and Run2, 10 µM, read-out: RelA Retest % Inhibition @ 10 µM Avg.
[13] = kinetic assay, 60 min-0 min, 10 µM, read-out: Kinetic assay @ 10 µM p52 % Inhibition ΔRFU(60 min-0 min)
[14] = kinetic assay, 60 min-0 min, 10 µM, read-out: Kinetic assay @ 10 µM RelA % Inhibition ΔRFU(60 min-0 min)
[15] = HTS, 5 µg/mL, NPDepo hits, read-out: RelA HTS % Inhibition @ 5 µg/mL
[16] = Retest Run1, 5 µg/mL, read-out: RelA Retest % Inhibition @ 5 µg/mL Run1
[17] = Retest Run2, 5 µg/mL, read-out: RelA Retest % Inhibition @ 5 µg/mL Run2
[18] = Retest average of Run1 and Run2, 5 µg/mL, read-out: RelA Retest % Inhibition @ 5 µg/mL Avg.
[19] = kinetic assay, 5 µg/mL, ΔRFU 60 min-0 min, read-out: Kinetic assay @ 5 µg/mL RelA Inhibition % ΔRFU(60 min-0 min)

Sequence of RelA (Q04206 19-306 limits assumed): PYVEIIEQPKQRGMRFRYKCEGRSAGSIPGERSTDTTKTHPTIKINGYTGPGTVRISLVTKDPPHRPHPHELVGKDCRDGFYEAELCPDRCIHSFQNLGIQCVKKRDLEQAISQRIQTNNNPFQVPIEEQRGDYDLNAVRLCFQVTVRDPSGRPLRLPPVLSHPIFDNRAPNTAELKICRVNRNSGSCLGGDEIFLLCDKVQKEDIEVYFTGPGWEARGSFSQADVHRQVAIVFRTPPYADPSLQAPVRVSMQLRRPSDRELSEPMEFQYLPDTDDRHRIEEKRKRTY

inhibition at 10 µM [1, 5] | Kinetic assay p52 % Inhibition ΔRFU(60 min-0 min) ([1]; kinetic assay, 60 min-0 min) | inhibition at 10 µM [1, 6] | inhibition at 10 µM [1, 7] | inhibition at 10 µM [1, 8] | inhibition at 10 µM [2, 9] | Kinetic assay RelA % Inhibition ΔRFU(60 min-0 min) ([2]; kinetic assay, 60 min-0 min) | inhibition at 10 µM [2, 10] | inhibition at 10 µM [2, 11] | inhibition at 10 µM [2, 12] | Molecule | also measured
– | – | – | – | – | – | – | – | – | – | Nc1ccc2nc3ccc(N)cc3[n+](-c3ccccc3)c2c1.[Cl-] [Phenosafranin] | p52 HTS % Inhibition ([1]; HTS, NPDepo hits): 86.7%; p52 Retest % Inhibition Run1 ([1]; Retest Run1): 78.7%; p52 Retest % Inhibition Run2 ([1]; Retest Run2): 85.1%; p52 Retest % Inhibition Avg. [1, 3]: 81.9%; Kinetic assay p52 Inhibition % ΔRFU(60 min-0 min) [1, 4]: -3.56%; RelA HTS % Inhibition ([2]; HTS, NPDepo hits): 99.3%; RelA Retest % Inhibition Run1 ([2]; Retest Run1): 77.2%; RelA Retest % Inhibition Run2 ([2]; Retest Run2): 83.4%; RelA Retest % Inhibition Avg. [2, 3]: 80.3%; Kinetic assay RelA Inhibition % ΔRFU(60 min-0 min) [2, 4]: -12%
70.9% | -16% | 60.7% | 69.7% | 65.2% | 56.7% | -18% | 60.6% | 66.3% | 63.5% | CCN(CC)CCCC(C)Nc1c2ccc(Cl)cc2nc2ccc(OC)cc12 (centres unmarked) [QUINACRINE HYDROCHLORIDE] | –
– | -17% | – | – | – | – | -17% | – | – | – | CCN(CC)CCCC(C)Nc1c2ccc(Cl)cc2nc2ccc(OC)cc12 (centres unmarked) [Quinacrine dihydrochloride dihydrate] | –
18.6% | – | 64.6% | 76.1% | 70.3% | 146% | – | 73.3% | 82.1% | 77.7% | Cn1cc(C2=C(c3ccc(Cl)cc3Cl)C(=O)NC2=O)c2ccccc21 [SB 216763] | inhibition at 10 µM [1, 13]: -10%; inhibition at 10 µM [2, 14]: -12%
33.8% | – | 29.3% | 32.3% | 30.8% | 29.9% | – | 32.3% | 36.4% | 34.3% | Cc1[nH]c(/C=C2\C(=O)Nc3ccccc32)c(C)c1CCC(=O)O [SU 6668] | inhibition at 10 µM [1, 13]: -12%; inhibition at 10 µM [2, 14]: -15%
– | – | – | – | – | – | – | – | – | – | O=C(O)c1cc(O)c2c(c1)[C@H]([C@H]1c3cc(C(=O)O)cc(O)c3C(=O)c3c(O[C@@H]4O[C@H](CO)[C@@H](O)[C@H](O)[C@H]4O)cccc31)c1cccc(O[C@@H]3O[C@H](CO)[C@@H](O)[C@H](O)[C@H]3O)c1C2=O [Sennoside A] | Hit Judgement of: p52 [1]: 1; Hit Judgement of: RelA [2]: 1; inhibition at 5 µg/mL [2, 15]: 85.4%; inhibition at 5 µg/mL [2, 16]: 88.7%; inhibition at 5 µg/mL [2, 17]: 100%; inhibition at 5 µg/mL [2, 18]: 94.6%; inhibition at 5 µg/mL [2, 19]: 31%
– | – | – | – | – | – | – | – | – | – | O=C(O)c1cc(O)c2c(c1)[C@@H]([C@H]1c3cc(C(=O)O)cc(O)c3C(=O)c3c(O[C@@H]4O[C@H](CO)[C@@H](O)[C@H](O)[C@H]4O)cccc31)c1cccc(O[C@@H]3O[C@H](CO)[C@@H](O)[C@H](O)[C@H]3O)c1C2=O [Sennoside B] | Hit Judgement of: p52 [1]: 1; Hit Judgement of: RelA [2]: 1; inhibition at 5 µg/mL [2, 15]: 87.4%; inhibition at 5 µg/mL [2, 16]: 74.5%; inhibition at 5 µg/mL [2, 17]: 85.1%; inhibition at 5 µg/mL [2, 18]: 79.8%; inhibition at 5 µg/mL [2, 19]: 73%
74.5% | – | 94.6% | 104% | 99.1% | 91.4% | – | 99.3% | 109% | 104% | CC[C@@]1(O)C(=O)OCc2c1cc1n(c2=O)Cc2cc3c(CN(C)C)c(O)ccc3nc2-1 [Topotecan] | inhibition at 10 µM [1, 13]: -3.67%; inhibition at 10 µM [2, 14]: -4.46%
– | – | – | – | – | – | – | – | – | – | Cc1cc(-c2ccc(/N=N/c3c(S(=O)(=O)O)cc4cc(S(=O)(=O)O)cc(N)c4c3O)c(C)c2)ccc1/N=N/c1c(S(=O)(=O)O)cc2cc(S(=O)(=O)O)cc(N)c2c1O [Trypan blue] | Hit Judgement of: p52 [1]: 1; inhibition at 5 µg/mL ([1]; HTS, 5 µg/mL, NPDepo hits, read-out: p52 HTS % Inhibition @ 5 µg/mL): 2.8%; inhibition at 5 µg/mL ([1]; Retest Run1, 5 µg/mL, read-out: p52 Retest % Inhibition @ 5 µg/mL Run1): 15.1%; inhibition at 5 µg/mL ([1]; Retest Run2, 5 µg/mL, read-out: p52 Retest % Inhibition @ 5 µg/mL Run2): 16.4%; inhibition at 5 µg/mL ([1]; Retest average of Run1 and Run2, 5 µg/mL, read-out: p52 Retest % Inhibition @ 5 µg/mL Avg.): 15.8%; inhibition at 5 µg/mL ([1]; kinetic assay, 5 µg/mL, ΔRFU 60 min-0 min, read-out: Kinetic assay @ 5 µg/mL p52 Inhibition % ΔRFU(60 min-0 min)): 7%; Hit Judgement of: RelA [2]: 1; inhibition at 5 µg/mL [2, 15]: 54.8%; inhibition at 5 µg/mL [2, 16]: 62%; inhibition at 5 µg/mL [2, 17]: 69%; inhibition at 5 µg/mL [2, 18]: 65.5%; inhibition at 5 µg/mL [2, 19]: 26%
30.5% | – | 0.245% | 0.9% | 0.6% | 1.1% | – | 0.0644% | 0.634% | 0.349% | O=c1cc[nH]c(=O)[nH]1 [URACIL] | inhibition at 10 µM [1, 13]: -1%; inhibition at 10 µM [2, 14]: -1.11%
– | -1.43% | – | – | – | – | -3.67% | – | – | – | COc1cc2c(cc1OC)-c1cc3nc4ccccc4nc3n1C(C)(C)C2 [YM 90709] | –
– | -2% | – | – | – | – | -0.814% | – | – | – | SN 38 | –

Molecule | inhibition at 10 µM [1, 5] | Kinetic assay p52 % Inhibition ΔRFU(60 min-0 min) ([1]; kinetic assay, 60 min-0 min) | inhibition at 10 µM [1, 6] | inhibition at 10 µM [1, 7] | inhibition at 10 µM [1, 8] | inhibition at 10 µM [2, 9] | Kinetic assay RelA % Inhibition ΔRFU(60 min-0 min) ([2]; kinetic assay, 60 min-0 min) | inhibition at 10 µM [2, 10] | inhibition at 10 µM [2, 11] | inhibition at 10 µM [2, 12] | also measured
COc1ccc2[nH]cc(C3=CCNCC3)c2c1.COc1ccc2[nH]cc(C3=CCNCC3)c2c1.O=C(O)CCC(=O)O [RU 24969 hemisuccinate] | – | -22% | – | – | – | – | -19% | – | – | – | –
O=C1NC(=O)c2c1c1c3ccccc3n3c1c1c2c2ccccc2n1C1CCC3O1 [SB 218078] | – | 5% | – | – | – | – | 13% | – | – | – | –
O=C(O[C@H]1C[C@H]2CC[C@@H](C1)[N+]21CCCC1)C(O)(c1ccccc1)c1ccccc1 [TROSPIUM CHLORIDE] | 116% | – | – | – | – | 108% | – | – | – | – | –
